According to patent publication US8192925B2, “Polypeptides having antimicrobial activity and polynucleotides encoding same” (Novozymes Adenium Biotech A/S, priority 2004, dated 2012):

Columns and labels:
Assay in all cases: Microdilution MIC assay (NCCLS/CLSI guidelines)
Format in all cases: cell-based
Conditions in all cases: tested 0.06-32 μg/ml
[1] = system: Enterococcus faecium, ATCC 49624
Method: (§1) Purified Eurocin was evaluated for antimicrobial activity in a microdillution assay. The
(§2) Minimal Inhibitory Concentration (MIC) was determined following the NCCLS/CLSI guidelines from CLSI (Clinical and Laboratory Standards Institute).
(§3) Eurocin was tested at the following concentrations: 32; 16; 8; 4; 2; 1; 0.50; 0.25; 0.13; and 0.06 μg/ml.

[2] = system: Micrococcus luteus, ATCC 9341
Method: as §1, §2, §3

[3] = system: Staphylococcus aureus, ATCC 29213
Method: as §1, §2, §3

[4] = system: Staphylococcus carnosus, ATCC 51365
Method: as §1, §2, §3

[5] = system: Staphylococcus epidermidis, ATCC 12228
Method: as §1, §2, §3

[6] = system: Streptococcus pneumoniae, ATCC 49619
Method: as §1, §2, §3

[7] = system: Streptococcus pyogenes, ATCC 12344
Method: as §1, §2, §3

Eurocin: antimicrobial polypeptide shown as amino acids 1 to 42 of SEQ ID NO:2, from Eurotium amstelodami, expressed in Aspergillus oryzae (MHFTKVSTILFTIFAAGIMAAPTEGVREEAAPGQEVYPDEPP; listed as Eurotium amstelodami)
MIC [1]: 16 µg/mL | MIC [2]: 0.5 µg/mL | MIC [3]: 16 µg/mL | MIC [4]: 8 µg/mL | MIC [5]: 16 µg/mL | MIC [6]: 0.25 µg/mL | MIC [7]: 0.13 µg/mL
